Measurements taken from patent US11084824B2, “Pyrazolopyrimidine derivatives, preparation method thereof, and pharmaceutical composition for use in preventing or treating cancer, autoimmune disease and brain disease containing the same as an active ingredient” (Korea Research Institute of Chemical Technology, priority 2017, dated 2021).

Legend:
[1] = tested on: TMD8 cells; assay: TMD8 cell growth inhibition (WST-1, 72 hours); format: cell-based; conditions: Homo sapiens, TMD8 ABC type DLBCL cell line, WST-1, absorbance 450 nm
Procedure: TDM-8 cells, the ABC (activated B-cell) type DLBCL (diffuse large B cell lymphoma) cell line sensitive to BTK signaling, were seeded in a 96-well plate at 30% confluency. Then, the compounds of the invention were treated thereto at different concentrations. 72 hours later, WST-1 reagent was added thereto. One hour later, absorbance was measured at 450 nm by using a spectramax spectrophotometer.

[2] = target: Bruton's tyrosine kinase (BTK) (Homo sapiens (Human), UniProt Q06187); assay: BTK enzyme inhibition assay (Cisbio HTRF kit); format: biochemical; conditions: 30 minutes reaction, fluorescence 665 nm/620 nm
Sequence of Bruton's tyrosine kinase (BTK) (Q06187 whole entry): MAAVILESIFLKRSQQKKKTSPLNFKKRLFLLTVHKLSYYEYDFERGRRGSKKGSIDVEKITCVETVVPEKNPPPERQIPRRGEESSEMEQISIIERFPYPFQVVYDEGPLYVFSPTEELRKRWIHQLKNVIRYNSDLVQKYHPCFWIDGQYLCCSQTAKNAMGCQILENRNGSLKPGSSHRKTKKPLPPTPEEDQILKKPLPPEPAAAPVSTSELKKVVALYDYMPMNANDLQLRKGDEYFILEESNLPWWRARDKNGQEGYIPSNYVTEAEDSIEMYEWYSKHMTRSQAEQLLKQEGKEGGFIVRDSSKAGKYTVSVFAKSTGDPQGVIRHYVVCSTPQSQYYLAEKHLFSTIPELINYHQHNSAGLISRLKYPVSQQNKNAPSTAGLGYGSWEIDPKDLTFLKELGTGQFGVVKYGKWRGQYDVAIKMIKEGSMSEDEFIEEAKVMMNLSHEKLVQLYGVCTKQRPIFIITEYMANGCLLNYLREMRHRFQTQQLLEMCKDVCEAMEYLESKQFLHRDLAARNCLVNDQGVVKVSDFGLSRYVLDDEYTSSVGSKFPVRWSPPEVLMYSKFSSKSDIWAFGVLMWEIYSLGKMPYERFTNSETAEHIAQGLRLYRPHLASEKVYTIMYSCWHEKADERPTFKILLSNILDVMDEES
Procedure: BTK enzyme evaluation with each compound of examples of the invention was performed by using BTK enzyme inhibition diagnosis kit (Cisbio, Codolet, France). […] Then, EDTA (ethylenediaminetetraacetic acid) was added thereto in order to terminate the reaction. At this time, the EDTA solution contained curopium-containing antibody (antiphosphoresidue antibody) and straptavidin-XL665 (SA-XL665, Cisbio). After incubation for 1 hour, fluorescence was measured. The emission values of 665 nm and 620 nm excited at 337 nm were measured with Envision reader. IC50 values were determined using GraphPad prism (version 5). Herein, the curve indicates a nonlinear regression model, which was determined by logarithmic functions and reaction values.

SMILES | IC50 [1] [nM] | IC50 [2] [nM]
Cc1cccc(C)c1Nc1nn(C)c2nc(Nc3ccc4c(c3)CN(CCO)CC4)ncc12 [Example 24, 2-(7-((3-((2,6-dimethylphenyl)amino)-1-methyl-1H-pyrazolo[3,4-d]pyrimidine-6-yl)amino)-3,4-dihydroisoquinoline-2(1H)-yl)ethane-1-ol] | 40.1 | 0.3
Cc1cccc(C)c1Nc1nn(C2CCCC2)c2nc(Nc3ccc4c(c3)CNCC4)ncc12 [Example 25, 1-cyclopentyl-N^3-(2,6-dimethylphenyl)-N^6-(1,2,3,4-tetrahydroisoquinoline-7-yl)-1H-pyrazolo[3,4-d]pyrimidine-3,6-diamine] | 90.3 | 0.3
Cc1cccc(C)c1Nc1nn(C2CCCCC2)c2nc(Nc3ccc4c(c3)CNCC4)ncc12 [Example 26, 1-cyclohexyl-N^3-(2,6-dimethylphenyl)-N^6 (1,2,3,4-tetrahydroisoquinoline-7-yl)-1H-pyrazolo[3,4-d]pyrimidine-3,6-diamine] | 64.9 | 2
Cc1ccc(NC(=O)c2cccc(C(F)(F)F)c2)cc1Nc1nn(C)c2nc(Nc3ccc4c(c3)CNCC4)ncc12 [Example 28, N-(4-methyl-3-((1-methyl-6-((1,2,3,4-tetrahydroisoquinoline-7-yl)amino)-1H-pyrazolo[3,4-d]pyrimidine-3-yl)amino)phenyl)-3-(trifluoromethyl)benzamide] | 17.9 | 3
Cc1ccc(NC(=O)c2cccc(C(F)(F)F)c2)c(C)c1Nc1nn(C)c2nc(Nc3ccc4c(c3)CNCC4)ncc12 [Example 29, N-(2,4-dimethyl-3-(1-methyl-6-(1,2,3,4-tetrahydroisoquinoline-7-ylamino)-1H-pyrazolo[3,4-d]pyrimidine-3-ylamino)phenyl)-3-(trifluoromethyl)benzamide] | 117 | 8
Cc1cccc(C)c1Nc1nn(C)c2nc(Nc3ccc4c(c3)CN(C(=O)CN(C)C)CC4)ncc12 [Example 31, 2-(dimethylamino)-1-(7-(3-(2,6-dimethylphenylamino)-1-methyl-1H-pyrazolo[3,4-d]pyrimidine-6-ylamino)-3,4-dihydroisoquinolin-2(1H)-yl)ethanone] | 64.2 | 0.8
CCN1CCc2ccc(Nc3ncc4c(Nc5c(C)cccc5C)nn(C)c4n3)cc2C1 [Example 32, N3-(2,6-dimethylphenyl)-N^6-(2-ethyl-1,2,3,4-tetrahydroisoquinoline-7-yl)-1-methyl-1H-pyrazolo[3,4-d]pyrimidine-3,6-diamine] | 37.9 | 0.7
Cc1cc(Oc2ccccc2)cc(C)c1Nc1nn(C)c2nc(Nc3ccc4c(c3)CNCC4)ncc12 [Example 33, N-(2,6-dimethyl-4-phenoxyphenyl)-1-methyl-N^6 (1,2,3,4-tetrahydroisoquinoline-7-yl)-1H-pyrazolo[3,4-d]pyrimidine-3,6-diamine] | 669 | 5
Cc1cc(C(=O)Nc2ccccn2)cc(C)c1Nc1nn(C)c2nc(Nc3ccc4c(c3)CNCC4)ncc12 [Example 34, 3,5-dimethyl-4-(1-methyl-6-(1,2,3,4-tetrahydroisoquinoline-7-ylamino)-1H-pyrazolo[3,4-d]pyrimidine-3-ylamino)-N-(pyridine-2-yl)benzamide] | 178 | 15
COc1cc(C)c(Nc2nn(C)c3nc(Nc4ccc5c(c4)CNCC5)ncc23)c(C)c1 [Example 35, N^3-(4-methoxy-2,6-dimethylphenyl)-1-methyl-N^6-(1,2,3,4-tetrahydroisoquinoline-7-yl)-1H-pyrazolo[3,4-d]pyrimidine-3,6-diamine] | 99.3 | 3
CCc1cccc(CC)c1Nc1nn(C)c2nc(Nc3ccc4c(c3)CNCC4)ncc12 [Example 36, N^3-(2,6-diethylphenyl)-1-methyl-N^6-(1,2,3,4-tetrahydroisoquinoline-7-yl)-1H-pyrazolo[3,4-d]pyrimidine-3,6-diamine] | 968 | 44
